Data set [1] can be described thus: Clearance in rat at 2 mg/kg, iv and 10 mg/kg, po. The following applies: in vivo.
Data set [2] is described as follows: Oral bioavailability in rat at 10 mg/kg. The class given is ADME, organism-based. The note with it: in vivo.
Data set [3] is described as follows: AUClast in rat at 2 mg/kg, iv and 10 mg/kg, po. The following applies: plasma.
Data set [4] can be described thus: Volume of distribution at steady state in rat at 2 mg/kg, iv and 10 mg/kg, po. The following applies: in vivo, read-out: Vdss.

In data set [1], `N#Cc1cc(NCC(=O)NC2CN([C@H]3CC[C@@](O)(c4cncs4)CC3)C2)c2cc(C(F)(F)F)ccc2n1` displayed a clearance of 148 mL/min/kg. Besides, in data set [2], the bioavailability was 0.5%. In data set [3], this compound showed an exposure AUC(0-t) of 6 ng·h/mL. Also, in data set [4], the Vd was 13 L/kg.

In data set [1], `O=C(CNc1ncnc2ccc(C(F)(F)F)cc12)NC1CN([C@H]2CC[C@@](O)(c3cncs3)CC2)C1` came in with a clearance of 89 mL/min/kg. Further, the bioavailability in data set [2] was 0.3%. In data set [3], this compound gave an exposure AUC(0-t) of 10.6 ng·h/mL. In data set [4], the Vd stood at 8.5 L/kg.

The record behind these values is ChEMBL document CHEMBL2311284, “A novel series of N-(azetidin-3-yl)-2-(heteroarylamino)acetamide CCR2 antagonists” (Bioorg Med Chem Lett, 2013).
